Test results: ChEMBL document CHEMBL4346724, “Porphyrinoid photosensitizers mediated photodynamic inactivation against bacteria” (Eur J Med Chem, 2019)

Experiments:
Fusobacterium nucleatum = assay: Photodynamic antibacterial activity against Fusobacterium nucleatum assessed as reduction in bacterial viability at 10 uM in presence of light at 5.3 to 20.1 J/cm2 by propidium iodide staining-based fluorescence assay; type: functional
[1] = system: Aggregatibacter actinomycetemcomitans; assay: Photodynamic antibacterial activity against Aggregatibacter actinomycetemcomitans assessed as reduction in bacterial viability at 10 uM in presence of light at 5.3 J/cm2 by propidium iodide staining-based fluorescence assay; type: functional
[2] = system: Capnocytophaga gingivalis; assay: Photodynamic antibacterial activity against Capnocytophaga gingivalis assessed as reduction in bacterial viability at 10 uM in presence of light at 5.3 to 20.1 J/cm2 by propidium iodide staining-based fluorescence assay; type: functional
[3] = system: Aggregatibacter actinomycetemcomitans; assay: Photodynamic antibacterial activity against Aggregatibacter actinomycetemcomitans assessed as reduction in bacterial viability at 10 uM in presence of light at 20.1 J/cm2 by propidium iodide staining-based fluorescence assay; type: functional
Eikenella corrodens = assay: Photodynamic antibacterial activity against Eikenella corrodens assessed as reduction in bacterial viability at 10 uM in presence of light at 20.1 J/cm2 by propidium iodide staining-based fluorescence assay; type: functional
Porphyromonas gingivalis = assay: Photodynamic antibacterial activity against Porphyromonas gingivalis assessed as reduction in bacterial viability at 10 uM in presence of light at 5.3 to 20.1 J/cm2 by propidium iodide staining-based fluorescence assay; type: functional
Escherichia coli [4] = assay: Photodynamic antibacterial activity against Escherichia coli assessed as reduction in bacterial burden at 0.5 to 1 uM after 15 mins in presence of light irradiation at 1004 J/cm2; type: functional
Escherichia coli [5] = assay: Photodynamic antibacterial activity against Escherichia coli ATCC 25922 assessed as reduction in bacterial burden after 24 hrs in presence of diode laser at 6 J/cm2; type: functional
Staphylococcus aureus [6] = assay: Photodynamic antibacterial activity against Staphylococcus aureus assessed as reduction in biofilm activity at 2.5 uM incubated for 10 mins in presence of tungsten halogen lamp light exposure at 22.5 to 180 J/cm2; type: functional
Pseudomonas aeruginosa [7] = assay: Photodynamic antibacterial activity against Pseudomonas aeruginosa assessed as reduction in biofilm formation at 20 uM incubated for 10 mins in presence of tungsten halogen lamp light exposure at 22.5 to 180 J/cm2; type: functional
Saccharomyces cerevisiae = assay: Photodynamic fungal activity against Saccharomyces cerevisiae assessed as reduction in fungal burden at 100 nM; type: functional
Staphylococcus aureus [8] = assay: Photodynamic antibacterial activity against Staphylococcus aureus assessed as reduction in bacterial burden at 100 nM; type: functional
Staphylococcus aureus [9] = assay: Photodynamic antibacterial activity against Staphylococcus aureus assessed as bacterial killing within 15 mins in presence of tungsten lamps light at 37 uEm'-2sec'-1 by spectrophotometic analysis relative to control; type: functional
Enterococcus faecalis [10] = assay: Photodynamic antibacterial activity against Enterococcus faecalis assessed as reduction in bacterial burden at 5 uM after 15 mins in presence of light irradiation at 14.4 J/cm2; type: functional
Pseudomonas aeruginosa [11] = assay: Photodynamic antibacterial activity against Pseudomonas aeruginosa assessed as reduction in biofilm formation at 5 mg/ml in presence of light at 100 J/cm2 relative to control; type: functional; design: scale not given: the % may be the effect or the level left
Pseudomonas aeruginosa [12] = assay: Photodynamic antibacterial activity against Pseudomonas aeruginosa assessed as bacterial killing at 2.5 mg/ml in presence of light at 100 J/cm2 relative to control; type: functional
Pseudomonas aeruginosa [13] = assay: Photodynamic antibacterial activity against Pseudomonas aeruginosa assessed as reduction in bacterial burden at 100 to 225 uM preincubated with bacteria followed by exposure of mercury vapor lamp light at 100 J/cm2 for 10 mins; type: functional
Pseudomonas aeruginosa [14] = assay: Photodynamic antibacterial activity against Pseudomonas aeruginosa assessed as reduction in bacterial burden at 225 uM in presence of light at 100 J/cm2; type: functional
Enterococcus faecalis [15] = assay: Photodynamic antibacterial activity against Enterococcus faecalis assessed as reduction in bacterial burden at 10 uM after 15 mins in presence of light irradiation at 64.8 J/cm2; type: functional
Enterococcus faecalis [16] = assay: Photodynamic antibacterial activity against Enterococcus faecalis assessed as reduction in bacterial burden at 5 uM after 15 mins in presence of light irradiation at 21.6 J/cm2; type: functional
Pseudomonas aeruginosa [17] = assay: Photodynamic antibacterial activity against Pseudomonas aeruginosa assessed as bacterial burden at 1 to 10 uM preincubated for 10 mins in dark condition followed by exposure of LED light at 66 to 266 J/cm2 relative to control; type: functional
Pseudomonas aeruginosa [18] = assay: Photodynamic antibacterial activity against Pseudomonas aeruginosa assessed as reduction in bacterial burden at 1 to 10 uM preincubated for 10 mins in dark condition followed by exposure of LED light at 66 to 266 J/cm2; type: functional
Enterococcus faecalis [19] = assay: Photodynamic antibacterial activity against Enterococcus faecalis assessed as reduction in bacterial burden at 5 uM after 15 mins in presence of light irradiation at 64.8 J/cm2; type: functional
Escherichia coli [20] = assay: Photodynamic antibacterial activity against Escherichia coli assessed as reduction in bacterial burden at 5 uM after 15 mins in presence of light irradiation at 64.8 J/cm2; type: functional, organism-based
Enterococcus faecalis [21] = assay: Photodynamic antibacterial activity against Enterococcus faecalis assessed as reduction in bacterial burden in presence of light irradiation; type: functional, organism-based
Enterococcus faecalis [22] = assay: Photodynamic antibacterial activity against Enterococcus faecalis assessed as reduction in bacterial burden at 10 uM in presence of light irradiation at 100 J/cm2; type: functional
Enterococcus faecalis [23] = assay: Dark toxicity against Enterococcus faecalis assessed as reduction in bacterial burden; type: organism-based; settings: in vivo
Enterococcus faecalis [24] = assay: Photodynamic antibacterial activity against Enterococcus faecalis assessed as reduction in bacterial burden at 30 uM in presence of light irradiation at 100 J/cm2; type: functional
Pseudomonas aeruginosa [25] = assay: Photodynamic antibacterial activity against Pseudomonas aeruginosa assessed as reduction in biofilm formation at 0.5 mg/ml in presence of light at 100 J/cm2; type: functional
Pseudomonas aeruginosa [26] = assay: Photodynamic antibacterial activity against Pseudomonas aeruginosa assessed as biofilm formation at 0.5 mg/ml in presence of light at 100 J/cm2 relative to control; type: functional
Helicobacter pylori [27] = assay: Photodynamic antibacterial activity against Helicobacter pylori infected in patient assessed as bacterial eradication at 20 mg/lg, po after 4 hrs in presence of blue light relative to control; type: functional
Helicobacter pylori [28] = assay: Photodynamic antibacterial activity against Helicobacter pylori infected in patient assessed as bacterial eradication at 20 mg/lg, po after 4 hrs in presence of white light relative to control; type: functional

`CC[C@H](C)CCCCCCCCCCC(=O)OC[C@H]1O[C@@H](OC(=O)/C(C)=C/C=C/C(C)=C/C=C/C(C)=C/C=C/C=C(C)/C=C/C=C(\C)CCC=C(C)C)[C@H](O)[C@@H](O)[C@@H]1O` was tested, and the “log(activity)” value (Fusobacterium nucleatum) was 5.3, the “log(activity)” value [1] was -0.2 and the “log(activity)” value [2] was 6.7. The “log(activity)” value [3] was -1, the “log(activity)” value (Eikenella corrodens) was 3 and the “log(activity)” value (Porphyromonas gingivalis) was 4.9.

With `C[n+]1ccc(-c2c3nc(c(-c4cc[n+](C)cc4)c4ccc([nH]4)c(-c4c(F)c(F)c(F)c(F)c4F)c4nc(c(-c5cc[n+](C)cc5)c5ccc2[nH]5)C=C4)C=C3)cc1.[I-].[I-].[I-]` the “log(activity)” value (Escherichia coli [4]) was 3.

With `C=Cc1c(C)c2cc3nc(c(C=O)c4[nH]c(cc5nc(cc1[nH]2)C(C)=C5C)c(C)c4C(=O)O)[C@@H](CCC(=O)O)[C@@H]3C` the “log(activity)” value (Escherichia coli [5]) was 0.17.

With `CN(C)CCCOc1ccc(-c2c3nc(c(-c4ccc(OCCCN(C)C)cc4)c4ccc([nH]4)c(-c4ccc(OCCCN(C)C)cc4)c4nc(c(-c5ccc(OCCCN(C)C)cc5)c5ccc2[nH]5)C=C4)C=C3)cc1` the “log(activity)” value (Staphylococcus aureus [6]) was 8 and the “log(activity)” value (Pseudomonas aeruginosa [7]) was 3.

`CC1(C)Cc2cc3[nH]c(cc4nc(cc5[nH]c(cc1n2)cc5CN(CCO)CCO)CC4(C)C)cc3CN(CCO)CCO` was tested, and the “log(activity)” value (Saccharomyces cerevisiae) was over 6.

With `CC1(C)Cc2cc3[nH]c(cc4nc(cc5[nH]c(cc1n2)cc5C(=O)NCC[N+](C)(C)C)CC4(C)C)cc3C(=O)NCC[N+](C)(C)C` the “log(activity)” value (Staphylococcus aureus [8]) was 5.

Molecule `CC1=Cc2cc3[nH]c(cc4nc(cc5[nH]c(cc1n2)cc5C)C(C)=C4CCC(=O)O)c(CCC(=O)O)c3C` has an Activity (Staphylococcus aureus [9]) of 99.9%.

`C[n+]1ccc(-c2c3nc(c(-c4cc[n+](C)cc4)c4ccc([nH]4)c(-c4cc[n+](C)cc4)c4nc(c(-c5cc[n+](C)cc5)c5ccc2[nH]5)C=C4)C=C3)cc1.[I-].[I-].[I-].[I-]` was tested, and the “log(activity)” value (Enterococcus faecalis [10]) was 7.35, the Activity (Pseudomonas aeruginosa [11]) was over 99% and the Activity (Pseudomonas aeruginosa [12]) was over 99%. For the same molecule, the “log(activity)” value (Pseudomonas aeruginosa [13]) was 4.1, the “log(activity)” value (Pseudomonas aeruginosa [14]) was 1.2 and the “log(activity)” value (Enterococcus faecalis [15]) was 5.07. The “log(activity)” value (Enterococcus faecalis [16]) was 7, the Activity (Pseudomonas aeruginosa [17]) was over 80% and the “log(activity)” value (Pseudomonas aeruginosa [18]) was under 1. For the same molecule, the “log(activity)” value (Enterococcus faecalis [19]) was 7.33.

`C[n+]1ccc(-c2c3nc(c(-c4cc[n+](C)cc4)c4ccc([nH]4)c(-c4ccc(C(=O)O)cc4)c4nc(c(-c5ccc(C(=O)O)cc5)c5ccc2[nH]5)C=C4)C=C3)cc1` was tested, and the log(activity) (Escherichia coli [20]) was over 3 and the log(activity) (Enterococcus faecalis [21]) was 7.03.

In the case of `COC(=O)c1ccc(-c2c3nc(c(-c4cc[n+](C)cc4)c4ccc([nH]4)c(-c4cc[n+](C)cc4)c4nc(c(-c5cc[n+](C)cc5)c5ccc2[nH]5)C=C4)C=C3)cc1.[I-].[I-].[I-]`, the “log(activity)” value (Enterococcus faecalis [16]) is reported as 7.

`Oc1cccc(-c2c3nc(c(-c4cccc(O)c4)c4ccc([nH]4)c(-c4cccc(O)c4)c4nc(c(-c5cccc(O)c5)c5ccc2[nH]5)CC4)C=C3)c1` [TEMOPORFIN] was tested, and the “log(activity)” value (Enterococcus faecalis [22]) was 5.8, the “log(activity)” value (Enterococcus faecalis [23]) was 1.5 and the “log(activity)” value (Enterococcus faecalis [24]) was 6.7.

`C[n+]1ccc(-c2c3nc(c(-c4cc[n+](C)cc4)c4ccc([nH]4)c(-c4cc[n+](C)cc4)c4nc(c(-c5cc[n+](C)cc5)c5ccc2[nH]5)C=C4)C=C3)cc1.Cc1ccc(S(=O)(=O)[O-])cc1.Cc1ccc(S(=O)(=O)[O-])cc1.Cc1ccc(S(=O)(=O)[O-])cc1.Cc1ccc(S(=O)(=O)[O-])cc1` was tested, and the “log(activity)” value (Pseudomonas aeruginosa [25]) was 4 and the Activity (Pseudomonas aeruginosa [26]) was 99.9%.

For `C[n+]1ccc(-c2c3nc(c(-c4ccc(C(=O)O)cc4)c4ccc([nH]4)c(-c4cc[n+](C)cc4)c4nc(c(-c5ccc(C(=O)O)cc5)c5ccc2[nH]5)C=C4)C=C3)cc1`, the log(activity) (Escherichia coli [20]) was over 3 and the log(activity) (Enterococcus faecalis [21]) was 0.88.

`NCC(=O)CCC(=O)O` [AMINOLEVULINIC ACID] showed an Activity (Helicobacter pylori [27]) of 66% and an Activity (Helicobacter pylori [28]) of 85%.
